Results reported in PMC8692993, “PPARα and PPARγ activation is associated with pleural mesothelioma invasion but therapeutic inhibition is ineffective” (iScience, 2021).

Legend:
[1] = In vitro metabolic stability in mouse liver microsomes; format: in vitro ADME
Experimental: The test compound (1 μM) was incubated at 37°C with mouse liver microsomes (XenoTech) at a protein concentration of 0.4 mg/mL. The metabolic reaction was initiated by the addition of a NADPH-regenerating system and quenched at various time points over a 60 min incubation period by the addition of acetonitrile. Control samples (without NADPH) were included (and quenched at 2, 30, 60 min) to monitor for potential degradation in the absence of cofactor. The degradation half-life and in vitro intrinsic clearance (in vitro CLint) in microsomes were calculated using the apparent first order degradation rate constant for substrate depletion ([Obach, 1999]).
Compound quantification was performed using a Xevo G2 QTOF (in vitro metabolic stability) using positive electrospray ionisation under MS^E mode or a Waters Xevo TQD (mouse exposure) mass spectrometer using positive electrospray ionisation multiple-reaction monitoring mode. Compounds were eluted using an acetonitrile-water/0.05% formic acid gradient at a flow rate of 0.4 mL/min operating over a 4 min cycle on a Waters Acquity UPLC using a Supelco Ascentis Express RP C8 column (50 × 2.1 mm, 2.7 μm). Extraction was performed by precipitation using acetonitrile (1:1 volume ratio for microsomes and 2:1 volume ratio for plasma samples) followed by centrifugation. Compound concentrations were quantified against calibration standards prepared in an appropriate matrix to match the test samples (e.g. plasma or microsomes).

[2] = system: HAP1, HAP1 PPARA KO, and HAP1 PPARG KO cell lines; assay: MTT cell metabolic activity assay, HAP1 lines; format: cell-based, human
Experimental: Cells were harvested and seeded in 96-flat well plates (Corning) at a density of 5 x 10^4 cells/mL overnight. Media was removed and 100 μL media with GW6471 or GW9662 at indicated concentrations was added to each well. Cell viability and toxicity were measured at 48 h. Cells were incubated with 50 μL of a 2 mg/mL solution of (3-(4,5-dimethyl-thiazole-2-yl)-2,5-[…] tetrazolium (MTT, Sigma-Aldrich) in PBS for 4 h and then exposed to 100 μL dimethyl sulfoxide (DMSO; Sigma-Aldrich). Cell viability was measured by absorption at 570 nm in a microplate spectrophotometer (Spectromax 250 plate reader). Results are shown as relative cell viability.

[3] = system: angiopoietin-like 4 (Angptl4); assay: Angptl4 immunohistochemistry of treated tumors; format: in vivo, BALB/c mice; conditions: GW6471- versus vehicle-treated tumors
Experimental: Tissues were fixed with 4% paraformaldehyde for 48–72 h and embedded in paraffin. 5 μm sections were cut by microtome (Thermo Fisher Scientific) and placed on Slide SuperFrost Plus White 1 mm (Thermo Fisher Scientific). Slides were deparaffinised as previously explained for hematoxylin and eosin staining. Antigen retrieval was performed with 10 mM citrate, pH6, at high pressure in a pressure cooker for 15 min and 5 min slow release. Sections were rinsed twice with TBST buffer (Tris-Buffer Saline with Tween, 20 mM Tris, 500 mM NaCl, and 0.05% Tween 20) for 5 min under agitation. Quench tissue peroxidase H2O2 was performed for 10 min at room temperature with 3% H2O2 in distilled H2O. The Vectastain® ABC kit, peroxidase (Rabbit IgG) (Vector Laboratories) was used for the following steps. Non-specific binding was performed with 1.5% Normal goat serum in PBS for 20 min at room temperature. Primary antibody Angptl4 (1:50) (409800, Invitrogen), was diluted in PBS/1.5% goat serum and incubated 1 h at room temperature. The secondary biotinylated anti-Rabbit IgG (1:200) (Vector Laboratories), was diluted in PBS and incubated for 30 min at room temperature. Vectastain ABC reagent (Vector Laboratories) was used as per manufacturer's instructions, mixing Reagent A with Reagent B (1:1) and incubating at room temperature 30 min prior use. […]

SMILES: CCC(=O)NC[C@H](Cc1ccc(OCCc2nc(-c3ccccc3)oc2C)cc1)N/C(C)=C\C(=O)c1ccc(C(F)(F)F)cc1 [GW6471]
- In vitro CLint ([1]; NADPH-activated mouse liver microsomes): 556 μL/min/mg protein
- Degradation half-life ([1]; NADPH-activated mouse liver microsomes, 1 μM, 0.4 mg/mL protein): 3 min
- Stability in the absence of NADPH ([1]; mouse liver microsomes without NADPH): stable
- Cellular proliferation (MTT) ([2]; HAP1, HAP1 PPARA KO, HAP1 PPARG KO, 0.391-100 μM): inhibited cellular proliferation at micromolar concentrations
- Growth inhibition compared between parental and PPARA/PPARG KO cells ([2]; HAP1 versus HAP1 PPARA KO and HAP1 PPARG KO): identical
- Angptl4 staining in tumors [3]: decreased staining of Angptl4
